{"source": "patent EP4043434A1", "about": "“NOVEL SULFONYLIMINES” (Karl-Franzens-Universität Graz, priority 2021, dated 2022)", "key": {"[1]": {"tested_on": "L-6 cells", "assay": "cells", "format": "cell-based, rat", "conditions": "for IC50: Rattus norvegicus, L6, cytotoxicity against L-6 cells, 70 h + 2 h incubation with Alamar Blue", "description": "Assays were performed in 96-well microtiter plates, each well containing 100 µl of RPMI 1640 medium supplemented with 1% L-glutamine (200 mM) and 10% fetal bovine serum, and 4000 L-6 cell, a primary cell line derived from rat skeletal myoblasts (Page, C.; et al. J. Oncol. 1993, 3, 473-476; Ahmed, S. A.; Gogal, R. M.; et al. J. Immunol. Methods 1994, 170 211-224).\nSerial drug dilutions of eleven 3-fold dilution steps covering a range from 100 to 0.002 µg/ml were prepared. After 70 hours of incubation the plates were inspected under an inverted microscope to assure growth of the controls and sterile conditions. 10 µl of Alamar Blue was then added to each well and the plates incubated for another 2 hours. Then the plates were read with a Spectramax Gemini XS microplate fluorometer (Molecular Devices Cooperation, USA) using an excitation wave length of 536 nm and an emission wave length of 588 nm. The IC50 values were calculated by linear regression (Huber, W.; et al. Acta Trop. 1993, 55, 257-261.) from the sigmoidal dose inhibition curves using SoftmaxPro software (Molecular Devices Cooperation, USA). Podophyllotoxin (Sigma P4405) was used as control. Table 1: Results for cytotoxicity against L-6 cells expressed as IC50 values (µM)"}, "[2]": {"tested_on": "Arthrobacter aurescens DSM20116", "assay": "Drop plate method assay, antimicrobial activity", "format": "cell-based", "parameters": "key: high activity (++); Medium activity (+); no activity(-)", "conditions": "10 µl of 1 mg/ml in DMSO dropped on seeded agar plate, read after approximately 10-16 h", "description": "(§1) A drop plate method assay (Alajlani, M.; et al. Chromatographia 2016, 79, 1527-1532.) with modification was performed to detect the antimicrobial and antifungal activity against the Gram positive bacteria Arthrobacter aurescens and the yeast strain Candida krusei. All compounds were dissolved in DMSO to a concentration of 1 mg/ml. Using sterile micropipette 10 µl of each compound was directly but gently dropped over seeded agar plate with test organism. The liquid was allowed to diffuse before the plate was inverted and incubated. The growth conditions for every strain was considered. The results were noted when a lawn of the indicator organism appeared on the plate (approximately 10-16 h). The magnitude of activity was noted as high activity (++), Medium activity (+),and no activity(-). Table 2: Antimicrobial and antifungal activities of compounds were detected over the test organisms."}, "[3]": {"tested_on": "Candida krusei CCMM L10", "assay": "Drop plate method assay, antifungal activity", "format": "cell-based", "parameters": "key: high activity (++); Medium activity (+); no activity(-)", "conditions": "10 µl of 1 mg/ml in DMSO dropped on seeded agar plate, read after approximately 10-16 h", "description": "as §1"}}}
{"smiles": "CC(C)=C/C(=C\\C=NS(=O)(=O)c1ccc([N+](=O)[O-])cc1)N1CCCCC1", "note": "[Example 2, (2E)-N-{5-Methyl-1-[(4-nitrophenyl)sulfonylimino]hexa-2,4-dien-3-yl}piperidin-1-ium chloride]", "values": [{"measurement": "IC50", "setting": "[1]", "value": 206, "unit": "µM"}]}
{"smiles": "CC(C)=C/C(=C\\C=NS(=O)(=O)c1ccc([N+](=O)[O-])cc1)N1CCCC1.Cl", "note": "[Example 3, (2E)-N-{5-Methyl-1-[(4-nitrophenyl)sulfonylimino]hexa-2,4-dien-3-yl}pyrrolidine-1-ium chloride]", "values": [{"measurement": "IC50 for cytotoxicity relative to the investigated concentration", "setting": "[1]", "value": 100, "unit": "times"}, {"measurement": "IC50", "setting": "[1]", "value": 250, "unit": "µM"}, {"measurement": "magnitude of activity, Arthrobacter aurescens DSM20116", "setting": "[2]", "value": "++"}, {"measurement": "magnitude of activity, Candida krusei CCMM L10", "setting": "[3]", "value": "+"}]}
{"smiles": "CC(C)=C/C(=C\\C=NS(=O)(=O)c1ccc(Cl)cc1)N1CCCCC1", "note": "[Example 5, (2E)-4-Chloro-N-[5-methyl-3-(piperidin-1-yl)hexa-2,4-dien-1-ylidene]benzenesulfonamide]", "values": [{"measurement": "magnitude of activity, Arthrobacter aurescens DSM20116", "setting": "[2]", "value": "++"}, {"measurement": "magnitude of activity, Candida krusei CCMM L10", "setting": "[3]", "value": "+"}]}
{"smiles": "CC(C)=C/C(=C\\C=NS(=O)(=O)c1ccccc1)N1CCCC1", "note": "[Example 6, 2(E)-N-[5-Methyl-3-(pyrrolidin-1-yl)hexa-2,4-dien-1-ylidene]benzenesulfonamide]", "values": [{"measurement": "magnitude of activity, Arthrobacter aurescens DSM20116", "setting": "[2]", "value": "++"}, {"measurement": "magnitude of activity, Candida krusei CCMM L10", "setting": "[3]", "value": "+"}]}
{"smiles": "CC(C)=C/C(=C\\C=NS(=O)(=O)c1ccccc1)N(C)C", "note": "[Example 7, (2E)-N-(3-Dimethylamino-5-methylhexa-2,4-dien-1-ylidene)benzenesulfonamide]", "values": [{"measurement": "magnitude of activity, Arthrobacter aurescens DSM20116", "setting": "[2]", "value": "++"}, {"measurement": "magnitude of activity, Candida krusei CCMM L10", "setting": "[3]", "value": "+"}]}
{"smiles": "CC(C)=C/C(=C\\C=NS(=O)(=O)c1ccc(C)cc1)N1CCCC1", "note": "[Example 8, (2E)-4-Methyl-N-[5-methyl-3-(pyrrolidin-1-yl)hexa-2,4-dien-1-ylidene]benzenesulfonamide]", "values": [{"measurement": "magnitude of activity, Arthrobacter aurescens DSM20116", "setting": "[2]", "value": "++"}, {"measurement": "magnitude of activity, Candida krusei CCMM L10", "setting": "[3]", "value": "+"}]}
{"smiles": "CC(C)=C/C(=C\\C=NS(C)(=O)=O)N1CCCCC1", "note": "[Example 10, (2E)-N-[5-Methyl-3-(piperidin-1-yl)hexa-2,4-dien-1-ylidene]methanesulfonamide]", "values": [{"measurement": "magnitude of activity, Arthrobacter aurescens DSM20116", "setting": "[2]", "value": "++"}, {"measurement": "magnitude of activity, Candida krusei CCMM L10", "setting": "[3]", "value": "+"}]}
